B1: interferon-γ: interferon used to treat Jurkat cells (protein, UniProt P01579 24-161, looked up)
Interferon gamma: QDPYVKEAENLKKYFNAGHSDVADNGTLFLGILKNWKEESDRKIMQSQIVSFYFKLFKNFKDDQSIQKSVETIKEDMNVKFFNSNKKKRDDFEKLTNYSVTDLNVQRKAIHELIQVMAELSPAAKTGKRKRSQMLFRG

What was measured:
[1] = system: hormone-resistant clones of human CEM-C7, T-ALL cells, or mouse SAK8 T-lymphoma cells; settings: hormone-resistant clones in culture; cited from earlier work
[2] = system: IRF-1 and IRF-2 protein levels in Jurkat cells; assay: IRF protein levels in interferon-treated Jurkat cells; type: cell-based, human; settings: data not shown
Excerpt: By identifying transcription factor binding sites in the 1A promoter and exon, we will determine whether activation of any of these factors will directly activate the hGR 1A promoter. […] See H. Harada et al., “Structurally Similar but Functionally Distinct Factors, IRF-1 and IRF-2, Bind to the Same Regulatory Elements of IFN and IFN-Inducible Genes,” Cell, vol. 58, pp. 729-739 (1989).

[3] = system: GR 1A3 exon-containing transcripts in CEM-C7 cells; assay: Northern blot of GR exon 1A transcripts after glucocorticoid treatment; type: cell-based, human; settings: 1 μM, data not shown
Excerpt: Glucocorticoid hormone treatment is known to up-regulate the levels of both GR mRNA and GR protein in immature T-lymphocytes and in some T-lymphoblasts that undergo apoptosis following hormone treatment. See Denton et al., (1993); and L. P. Eisen et al., “Positive Regulation of the Glucocorticoid Receptor in Human T-Cells Sensitive to the Cytolytic Effects of Glucocorticoids,” J. Biol. Chem., vol. 263, pp. 12044-12048 (1988). The human CEM-C7 acute lymphoblastic leukemia (ALL) cell line has served as a model system for glucocorticoid-sensitive human T-cell ALL. See M. R. Norman and E. B. Thompson, “Characterization of a Glucocorticoid-Sensitive Human Lymphoid Cell Line,” Cancer Res., vol. 37, pp. 3785-3791 (1977). CEM-C7 cells were treated with 1 μM dexamethasone (a glucocorticoid analogue) for various periods of time, from 6 hr to 48 hr. RNA was then extracted, and northern blots were prepared and probed with the GR-1A-exon-specific probes (exon 1A1, exon 1A2, and exon 1A3; Table 1). […] Up-regulation of exon 1A1 and exon 1A2 transcripts was also observed (data not shown).

[4] = system: GR exon 1 transcripts in CEM-C7 cells; assay: RT-PCR of GR exon 1 transcripts after hormone treatment, CEM-C7; settings: 1 μM

Molecule	sensitivity to glucocorticoid-mediated killing [1]	IRF-1 protein levels [2]	IRF-2 protein levels [2]	exon 1A1 and exon 1A2 transcripts [3]	increase in exon 1A3-containing transcripts [4] [fold]
Nc1ncn([C@@H]2O[C@H](CO)[C@@H](O)[C@H]2O)c(=O)n1 [5-azacytidine]	become stably sensitive to glucocorticoid-mediated killing	–	–	–	–
interferon-α	–	dramatic increase	not IRF-2	–	–
C[C@@H]1C[C@H]2[C@@H]3CCC4=CC(=O)C=C[C@]4(C)[C@@]3(F)[C@@H](O)C[C@]2(C)[C@@]1(O)C(=O)CO [dexamethasone]	–	–	–	Up-regulation	2.5
B1	–	dramatic increase	not IRF-2	–	–
